In article PMC4872591, “An evaluation of Minor Groove Binders as anti-Trypanosoma brucei brucei therapeutics” (European Journal of Medicinal Chemistry, 2016):
Where two headings read alike, the source gives them in different places. Marks after values point to notes of the source that are not given here. Each block holds one molecule with its values, some of them ahead of it.

Assays:
[1] = tested on: Bloodstream form T. b. brucei (Lister 427); assay: Trypanosoma brucei brucei Alamar Blue assay; type: cell-based; details: Trypanosoma brucei
Procedure: IC50 values against trypanosomes were determined by Alamar Blue assay. […] After this time, 20 μL of resazurin dye (Sigma–Aldrich) solution at 0.49 mM was added. […] Output was plotted using the IC50 determination algorithm of Prism 5.0 software (GraphPad). Three independent experiments were carried out in duplicate for each compound.

HEK 293 cells = assay: HEK 293 cytotoxicity assay (AlamarBlue viability); type: cell-based, human; details: for SI (selectivity index): HEK 293 IC50 taken as 20 μM (10 μM estimated for compound 21) versus T. b. brucei IC50
Procedure: Compounds were tested in an AlamarBlue viability assay using fluorescent intensity as the output. Briefly, Human Embryonic Kidney cells (HEK 293) were cultured in DMEM (Dulbeccos Modified Eagle Medium) plus 10% Foetal Bovine Serum (FBS) in a humidified environment at 37 °C and 5% CO2. Cells were harvested at 80% confluence and plated into 384-well tissue culture treated black walled clear base plates at 2000 cells per well in a volume of 45 μl and incubated overnight to equilibrate. Five μl of compounds in serial dilution format, including Puromycin as a positive control and 0.4% DMSO as the negative control, were transferred into the plates containing the equilibrated HEK293 cells. The plates were incubated for a further 72 h before “flicking” the compound containing media out and replacing with 40 μL of 10% AlamarBlue® in DMEM without FBS. The assay plates were returned to the incubator for 6 h then the total fluorescent intensity determined at 535 nm excitation and 585 nm emission using the Perkin Elmer ENVISION 2101 Multilabel Reader. Fluorescent intensity values were normalized as percent inhibition in relation to the positive and negative controls of 5 μM Puromycin and 0.4% DMSO, respectively. The compounds were tested in two separate experiments each in duplicate point.

T. b. brucei = assay: Fluorescence microscopy, intracellular localisation in T. b. brucei; type: cell-based, Trypanosoma brucei brucei; details: 50 μM, 2 h, FITC and DsRed filters
Procedure: Fig. 6 Intracellular localisation of fluorescent MGB in T. b. brucei. Trypanosomes were treated for 2 h with 50 μM of MGB and viewed at 100 × magnification. N = nucleus; K = kinetoplast; arrow = other organelles. Bar = 10 μm.
T. b. brucei parasites (1 × 10^7 cell/mL) were treated with 50 μM of compound 32 for 2 h at 37 °C in a humidified, 5% CO2 atmosphere. After washing in PBS, an aliquot of cells was mixed with an equal volume of 2% w/v low melting point agarose (Sigma–Aldrich) and spread onto a slide by addition of a coverslip. Slides were viewed using a Zeiss Axioplan 2 Imaging epifluorescence microscope, equipped with a digital CCD camera (Hammatsu Photonics) and a Plan[…] 100 × oil-immersion NA 1.4 objective (Carl Zeiss). FITC (excitation 450–490 nm, beamsplitter 510 nm, emission 515–565 nm) and DsRed (excitation 545/25 nm, beamsplitter 570 nm, emission 605/70 nm) filter sets were used, and images acquired using Volocity imaging software (Improvision).

[2] = tested on: kinetoplast of trypanosome; design: method as in PMID 16723581; details: cited from earlier work
[3] = Table 1, Alamar Blue, 48 h + 24 h, all standard deviations less than 2%, read-out: IC50 against Trypanosoma brucei brucei
[4] = Table 2, read-out: Trypanosoma brucei brucei IC50
[5] = values given in nM, read-out: IC50 against T. b. brucei

Structure (SMILES): Cn1cc(NC(=O)c2cc(NC(=O)c3cc(NC(=O)c4cc5ccccc5cn4)cn3C)cn2C)cc1C(=O)NCCCN1CCOCC1 [Compound 8, N-[1-Methyl-5-({[1-methyl-5-({[1-methyl-5-({[3-(4-morpholinyl)propyl]amino}carbonyl)-1H-pyrrol-3-yl]amino}carbonyl)-1H-pyrrol-3-yl]amino}carbonyl)-1H-pyrrol-3-yl]-3-isoquinolinecarboxamide]
IC50 [1, 3]: 6.8 nM
IC50 [1, 4]: 6.8 nM
IC50 [1, 5]: < 40 nM
% HEK 293 Inhibition at 20 μM (HEK 293 cells; 20 μM, 72 h, HEK 293): N/A (N/A is an IC50 value > 20 μM)
SI (selectivity index) (HEK 293 cells): >2941

Structure (SMILES): Cn1cc(NC(=O)c2cc(NC(=O)c3ccc(/C=C/c4ccncc4)cc3)cn2C)cc1C(=O)NCCN1CCOCC1 [Compound 24, 1-Methyl-N-[1-methyl-5-({[2-(4-morpholinyl)ethyl]amino}carbonyl)-1H-pyrrol-3-yl]-4-({4-[(E)-2-(4-pyridinyl)ethenyl]benzoyl}amino)-1H-pyrrole-2-carboxamide]
IC50 [1, 3]: 380 nM

Structure (SMILES): Cn1cc(NC(=O)c2cc(NC(=O)c3cc(NC(=O)c4ccc(Cl)cc4Cl)cn3C)cn2C)cc1C(=O)NCCCN1CCOCC1 [Compound 25, 4-[(2,4-Dichlorobenzoyl)amino]-1-methyl-N-[1-methyl-5-({[1-methyl-5-({[3-(4-morpholinyl)propyl]amino}carbonyl)-1H-pyrrol-3-yl]amino}carbonyl)-1H-pyrrol-3-yl]-1H-pyrrole-2-carboxamide]
IC50 [1, 3]: 2300 nM
IC50 ([1]; Table S2 (supplement), T. b. brucei activity, read-out: IC50): 790 nM

Structure (SMILES): Cn1cc(NC(=O)c2cc(NC(=O)c3ccc(/C=C/c4cccc(F)c4)cc3)cn2C)cc1C(=O)NCCN1CCOCC1 [Compound 27, 4-({4-[(E)-2-(3-fluorophenyl)ethenyl]benzoyl}amino)-1-methyl-N-[1-methyl-5-({[2-(4-morpholinyl)ethyl]amino}carbonyl)-1H-pyrrol-3-yl]-1H-pyrrole-2-carboxamide]
IC50 [1, 3]: 220 nM

Structure (SMILES): Cn1cc(NC(=O)c2cc(NC(=O)c3ccc(/C=C/c4ccc5nsnc5c4)cc3)cn2C)cc1C(=O)NCCN1CCOCC1 [Compound 28, 4-({4-[(E)-2-(2,1,3-benzothiadiazol-5-yl)ethenyl]benzoyl}amino)-1-methyl-N-[1-methyl-5-({[2-(4-morpholinyl)ethyl]amino}carbonyl)-1H-pyrrol-3-yl]-1H-pyrrole-2-carboxamide]
IC50 [1, 3]: 7.3 nM
IC50 [1, 4]: 7.3 nM
IC50 [1, 5]: < 40 nM
% HEK 293 Inhibition at 20 μM (HEK 293 cells; 20 μM, 72 h, HEK 293): N/A (N/A is an IC50 value > 20 μM)
SI (selectivity index) (HEK 293 cells): >2739

Structure (SMILES): Cn1cc(NC(=O)c2cc(NC(=O)c3ccc(/C=C/c4ccc5nonc5c4)cc3)cn2C)cc1C(=O)NCCN1CCOCC1 [Compound 29, 4-({4-[(E)-2-(2,1,3-benzoxadiazol-5-yl)ethenyl]benzoyl}amino)-1-methyl-N-[1-methyl-5-({[2-(4-morpholinyl)ethyl]amino}carbonyl)-1H-pyrrol-3-yl]-1H-pyrrole-2-carboxamide]
IC50 [1, 3]: 19 nM
IC50 [1, 4]: 19 nM
IC50 [1, 5]: < 40 nM
% HEK 293 Inhibition at 20 μM (HEK 293 cells; 20 μM, 72 h, HEK 293): N/A (N/A is an IC50 value > 20 μM)
SI (selectivity index) (HEK 293 cells): >1052

Structure (SMILES): CSc1ccc(/C=C/c2ccc3cc(C(=O)Nc4cc(C(=O)Nc5cc(C(=O)NCCN6CCOCC6)n(C)c5)n(C)c4)ccc3n2)cc1 [Compound 31, N-[1-methyl-5-({[1-methyl-5-({[2-(4-morpholinyl)ethyl]amino}carbonyl)-1H-pyrrol-3-yl]amino}carbonyl)-1H-pyrrol-3-yl]-2-{(E)-2-[4-(methylsulfanyl)phenyl]ethenyl}-6-quinolinecarboxamide]
IC50 [1, 3]: 5000 nM

Structure (SMILES): CN(C)c1ccc(/C=C/c2ccc(C(=O)Nc3cc(C(=O)Nc4cc(C(=O)NCCN5CCOCC5)n(C)c4)n(C)c3)cn2)cc1 [Compound 32, 6-{(E)-2-[4-(Dimethylamino)phenyl]ethenyl}-N-[1-methyl-5-({[1-methyl-5-({[2-(4-morpholinyl)ethyl]amino}carbonyl)-1H-pyrrol-3-yl]amino}carbonyl)-1H-pyrrol-3-yl]nicotinamide]
IC50 [1, 3]: 170 nM
Intracellular localisation in the trypanosome (T. b. brucei): localisation to the nucleic acid rich regions of the nucleus and kinetoplast

Structure (SMILES): N=C(N)c1ccc(/N=N/Nc2ccc(C(=N)N)cc2)cc1 [Diminazene, diminazene, reference compound]
IC50 [1, 5]: 5 nM

Structure (SMILES): N=C(N)c1ccc(-c2ccc(-c3ccc(C(=N)N)cc3)o2)cc1 [Furamidine, furamidine]
exposure time to destruction of the kinetoplast [2]: ≤ 24 h

Structure (SMILES): COc1ccc(C[C@H](N)C(=O)N[C@H]2[C@@H](O)[C@H](n3cnc4c(N(C)C)ncnc43)O[C@@H]2CO)cc1 [Puromycin, reference compound]
IC50 (HEK 293 cells; Homo sapiens, HEK293, positive control, two separate independent experiments, read-out: IC50 against HEK 293 cells): 350 nM

Structure (SMILES): N=C(N)c1ccc(OCCCCCOc2ccc(C(=N)N)cc2)cc1 [pentamidine]
exposure time to destruction of the kinetoplast [2]: ≤ 24 h

Continued, in another order:

IC50 [1, 3]: 40 nM
IC50 [1, 4]: 40 nM
IC50 [1, 5]: < 40 nM
Structure (SMILES): CC(C)CCc1sc(NC(=O)c2cc(NC(=O)c3ccc(/C=C/c4ccc5ccccc5c4)cc3)cn2C)nc1C(=O)NCCN1CCOCC1 [Compound 20, 5-isopentyl-2-({[1-methyl-4-({4-[(E)-2-(2-naphthyl)ethenyl]benzoyl}amino)-1H-pyrrol-2-yl]carbonyl}amino)-N-[2-(4-morpholinyl)ethyl]-1,3-thiazole-4-carboxamide]
% HEK 293 Inhibition at 20 μM (HEK 293 cells; 20 μM, 72 h, HEK 293): N/A (N/A is an IC50 value > 20 μM)
SI (selectivity index) (HEK 293 cells): >500

IC50 [1, 3]: 5.4 nM
IC50 [1, 4]: 5.4 nM
IC50 [1, 5]: < 40 nM
Structure (SMILES): CC(C)CCc1sc(NC(=O)c2cc(NC(=O)c3cc(/C=C/c4ccc([N+](=O)[O-])cc4)cn3C)cn2C)nc1C(=O)NCCN1CCOCC1 [Compound 21, 5-isopentyl-2-[({1-methyl-4-[({1-methyl-4-[(E)-2-(4-nitrophenyl)ethenyl]-1H-pyrrol-2-yl}carbonyl)amino]-1H-pyrrol-2-yl}carbonyl)amino]-N-[2-(4-morpholinyl)ethyl]-1,3-thiazole-4-carboxamide]
SI (selectivity index) (HEK 293 cells): >1851*
inhibition at 20 µM (HEK 293 cells; Homo sapiens, HEK293, 20 μM, 72 h, HEK 293): 54%
IC50 (HEK 293 cells; Homo sapiens, HEK293, read-out: estimated IC50 against HEK 293 cells): ~10000 nM

IC50 [1, 3]: 620 nM
Structure (SMILES): CC(C)CCc1sc(NC(=O)c2cc(NC(=O)c3ccc(/C=C/c4ccc5ccccc5n4)cc3)cn2C)nc1C(=O)NCCN1CCOCC1 [Compound 23, 5-isopentyl-2-({[1-methyl-4-({4-[(E)-2-(2-quinolinyl)ethenyl]benzoyl}amino)-1H-pyrrol-2-yl]carbonyl}amino)-N-[2-(4-morpholinyl)ethyl]-1,3-thiazole-4-carboxamide]

IC50 [1, 3]: 710 nM
Structure (SMILES): Cn1cc(NC(=O)c2cc(NC(=O)c3ccc(/C=C/c4ccc(F)cc4)cc3)cn2C)cc1C(=O)NCCN1CCOCC1 [Compound 26, 4-({4-[(E)-2-(4-fluorophenyl)ethenyl]benzoyl}amino)-1-methyl-N-[1-methyl-5-({[2-(4-morpholinyl)ethyl]amino}carbonyl)-1H-pyrrol-3-yl]-1H-pyrrole-2-carboxamide]

IC50 [1, 3]: 630 nM
Structure (SMILES): COc1ccc(/C=C/c2ccc3cc(C(=O)Nc4cc(C(=O)Nc5cc(C(=O)NCCN6CCOCC6)n(C)c5)n(C)c4)ccc3n2)cc1 [Compound 30, 2-[(E)-2-(4-Methoxyphenyl)ethenyl]-N-[1-methyl-5-({[1-methyl-5-({[2-(4-morpholinyl)ethyl]amino}carbonyl)-1H-pyrrol-3-yl]amino}carbonyl)-1H-pyrrol-3-yl]-6-quinolinecarboxamide]
